Reference: patent US8710085B2, “Pyrrolidine-1,2-dicarboxamide derivatives” (Novartis AG, priority 2008, dated 2014)

Experiments:
[1] = In vitro metabolic clearance, rat liver microsomes (CYP MetCL-Ra); assay type: in vitro ADME; settings: rat liver microsomes 0.5 mg/mL, test article 1.0 μM, NADPH, 37° C.; read-out: CYP MetCL-Ra/CL(int)
Experimental: (§1) Final test article and protein concentrations, as well as incubation duration, are shown below (Table 1). Low test article concentrations were selected to comply with the assumption that reaction kinetics are evaluated at a concentration less than (or approximately equal to) Km. DMSO is known to have an inhibitory effect on CYP activity. Therefore, the concentration of DMSO in the incubation media has been restricted to 0.01% (v/v) so that interference to the metabolic process is minimized.
(§2) A typical experiment is performed in 96-well format with shaking incubation at 37° C. […] A 30 minutes negative control incubation (minus cofactor) is also performed to assess CYP-unrelated stability issues (eg, chemical instability, CYP-independent metabolism).
In general, TA's in 10 mM DMSO are diluted 1:1000 into 0.6% ACN (v/v) in DiH20 to 10 μM. […] For evaluation of UGT-mediated metabolism, the suspension may be first pretreated by 5 min incubation on ice with alamethicin (25 μg/mg of microsomal protein). […]
(§3) The bulk reactions for the remaining time points are initiated by addition of 125 μL of cofactor solution (2 mM NADPH in 50 mM KPi plus 4 mM MgCl2) to the remaining 125 μL of enzyme.substrate mixture. […] All the samples are centrifuged at ˜3400×g at 4° C. for 10 min and the supernatants are analyzed by LC-MS/MS for quantitation of remaining TA. […]

[2] = In vitro metabolic clearance, human liver microsomes (CYP MetCL-Hu); assay type: in vitro ADME; settings: human liver microsomes 0.5 mg/mL, test article 1.0 μM, NADPH, 37° C.; read-out: CYP MetCL-Hu/CL(int)
Experimental: as §1, §2
In general, TA's in 10 mM DMSO are diluted 1:1000 into 0.6% ACN (v/v) in DiH20 to 10 μM. […] For evaluation of UGT-mediated metabolism, the suspension may be first pretreated by 5 min incubation on ice with alamethicin (25 μg/mg of microsomal protein). TA (35 μL) is added to 140 μL of the microsomal suspensions for 175 μL enzymesubstrate mixture. […] The 30 min negative control incubation is processed by combining 25 μL of enzyme.substrate mixture with an equal volume of 50 mM KPi containing 4 mM MgCl2. Following a 30 minute incubation at 37° C., the mix is quenched by adding 50 μL of ACN containing the MS internal standard (2 μM alprenolol). The T=0 min time point is processed by combining 25 μL of enzyme.substrate mixture directly with 50 μL of ACN containing the MS internal standard (2 μM alprenolol). 25 μL of the cofactor solution is added (2 mM NADPH in 50 mM KPi plus 4 mM MgCl2; optionally including 2 mM UDPGA for CYP+UGT assays) to simulate the complete quenched reaction mixture.
as §3

PI3Kα = target: T1, PI3Kα (Homo sapiens, UniProt P42336); experiment: PI3K KinaseGlo assay, PI3Kα; assay type: biochemical; settings: KinaseGlo; 10 nM enzyme, 1 μM ATP, 30 mins, room temperature; read-out: PI3Ka/IC50
T1 construct: p110α(21-1068)-His; made in house; host or cells: baculovirus, Tn5 insect cells
T1 sequence (P42336 with tags, fused parts or gaps): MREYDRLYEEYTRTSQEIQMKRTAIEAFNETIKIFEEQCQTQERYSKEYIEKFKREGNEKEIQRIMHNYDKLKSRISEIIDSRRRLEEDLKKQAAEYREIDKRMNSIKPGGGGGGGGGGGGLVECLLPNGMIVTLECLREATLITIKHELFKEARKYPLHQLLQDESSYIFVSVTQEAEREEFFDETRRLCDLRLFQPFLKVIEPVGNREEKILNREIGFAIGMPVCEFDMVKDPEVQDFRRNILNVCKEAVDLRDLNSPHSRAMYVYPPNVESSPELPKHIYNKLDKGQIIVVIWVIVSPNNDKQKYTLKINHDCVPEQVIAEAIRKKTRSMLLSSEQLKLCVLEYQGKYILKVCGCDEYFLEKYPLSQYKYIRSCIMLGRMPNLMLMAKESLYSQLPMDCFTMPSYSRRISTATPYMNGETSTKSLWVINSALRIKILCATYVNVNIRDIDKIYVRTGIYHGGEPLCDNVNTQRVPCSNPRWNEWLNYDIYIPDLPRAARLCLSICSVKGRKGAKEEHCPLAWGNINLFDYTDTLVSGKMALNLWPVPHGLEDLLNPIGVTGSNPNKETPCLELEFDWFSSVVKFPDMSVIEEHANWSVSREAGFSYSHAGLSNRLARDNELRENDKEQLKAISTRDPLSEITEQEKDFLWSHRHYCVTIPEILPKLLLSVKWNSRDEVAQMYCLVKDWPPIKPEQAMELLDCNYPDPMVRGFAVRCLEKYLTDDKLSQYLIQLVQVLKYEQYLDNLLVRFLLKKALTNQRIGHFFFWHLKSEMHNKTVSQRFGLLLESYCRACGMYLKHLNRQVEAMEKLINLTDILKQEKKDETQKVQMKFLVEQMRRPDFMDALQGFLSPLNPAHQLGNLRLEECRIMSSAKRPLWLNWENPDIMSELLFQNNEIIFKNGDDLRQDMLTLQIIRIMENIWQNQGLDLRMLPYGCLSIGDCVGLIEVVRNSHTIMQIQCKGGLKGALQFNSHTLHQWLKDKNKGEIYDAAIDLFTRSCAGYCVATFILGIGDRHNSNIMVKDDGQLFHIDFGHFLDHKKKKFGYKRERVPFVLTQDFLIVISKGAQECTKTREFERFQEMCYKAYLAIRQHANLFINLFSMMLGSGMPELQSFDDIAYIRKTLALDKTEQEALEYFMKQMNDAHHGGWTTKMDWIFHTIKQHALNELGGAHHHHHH

PI3Kγ = target: T2, PI3Kγ (Homo sapiens, UniProt P48736, Q459R); experiment: PI3K KinaseGlo assay, PI3Kγ; assay type: biochemical; settings: 150 nM enzyme, 1 μM ATP, 90 mins, room temperature, read-out: PI3Kg/IC50
T2 construct: p110γ(Δ143-[Met144-1102])-His; made in house; host or cells: Tn5 insect cells; construct from Roger Williams lab, MRC LMB
T2 sequence (P48736 with tags, fused parts or gaps Q459R): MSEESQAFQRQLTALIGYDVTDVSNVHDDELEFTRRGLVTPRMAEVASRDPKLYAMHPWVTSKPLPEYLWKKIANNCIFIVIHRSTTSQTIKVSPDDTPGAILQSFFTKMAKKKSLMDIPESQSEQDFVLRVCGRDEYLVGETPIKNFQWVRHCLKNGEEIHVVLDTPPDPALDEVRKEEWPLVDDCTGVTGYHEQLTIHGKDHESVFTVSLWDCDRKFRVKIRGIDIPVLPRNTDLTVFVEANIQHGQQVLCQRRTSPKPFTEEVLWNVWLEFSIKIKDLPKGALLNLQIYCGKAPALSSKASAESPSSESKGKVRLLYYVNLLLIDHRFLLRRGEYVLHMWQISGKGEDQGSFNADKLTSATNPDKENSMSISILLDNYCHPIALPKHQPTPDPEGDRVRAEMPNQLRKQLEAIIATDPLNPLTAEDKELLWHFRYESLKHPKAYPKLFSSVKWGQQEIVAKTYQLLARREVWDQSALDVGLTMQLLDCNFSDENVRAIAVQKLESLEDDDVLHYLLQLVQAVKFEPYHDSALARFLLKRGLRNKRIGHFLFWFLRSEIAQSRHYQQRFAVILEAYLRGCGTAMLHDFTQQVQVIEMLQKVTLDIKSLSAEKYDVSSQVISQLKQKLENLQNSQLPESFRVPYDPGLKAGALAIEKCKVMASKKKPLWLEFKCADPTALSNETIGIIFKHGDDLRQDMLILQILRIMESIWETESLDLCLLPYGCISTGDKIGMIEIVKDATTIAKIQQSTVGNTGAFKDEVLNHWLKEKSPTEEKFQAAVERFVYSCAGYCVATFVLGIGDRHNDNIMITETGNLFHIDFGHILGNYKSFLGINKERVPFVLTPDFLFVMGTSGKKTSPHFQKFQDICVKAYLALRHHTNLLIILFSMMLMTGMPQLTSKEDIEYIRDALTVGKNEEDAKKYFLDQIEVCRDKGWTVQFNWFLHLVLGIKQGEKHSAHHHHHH
Experimental: (§4) L-a-phosphatidylinositol (PI), provided as 10 mg/ml solution in methanol, was transferred into a glass tube and dried under nitrogen beam. It was then resuspended in 3% OctylGlucoside (OG) by vortexing and stored at 4° C. The KinaseGlo Luminescent Kinase Assay (Promega, Madison/WI, USA) is a homogeneous HTS method of measuring kinase activity by quantifying the amount of ATP remaining in solution following a kinase reaction.
5 μL of a mix of PI/OG with the PI3K subtype were added (Table 1). Kinase reactions were started by addition of 5 μl of ATP-mix containing in a final volume 10 μL 10 mM TRIS-HCl pH 7.5, 3 mM MgCl2, 50 mM NaCl, 0.05% CHAPS, 1 mM DTT and 1 μM ATP, and occurred at room temperature. […] The standard was used as a reference compound and included in all assay plates in the form of 16 dilution points in duplicate. […]
(§5) PI3Kα, PI3Kβ and PI3Kγ were purified in two chromatographic steps: immobilized metal affinity chromatography (IMAC) on a Ni sepharose resin (GE Healthcare) and gel filtration utilizing a Superdex 200 26/60 column (GE Healthcare). All buffers were chilled to 4° C. and lysis was performed chilled on ice. Column fractionation was performed at room temperature. All buffers used to purify PI3Kβ contained 0.05% Triton X100 in addition to what is described below.
(§6) The lysate was centrifuged at 45,000 g for 30 minutes, and the supernatant was loaded onto a pre-equilibrated IMAC column (3 mL resin/100 mL lysate). […] Protein was eluted with 20 mM Tris-Cl, pH 7.5, 0.5 M NaCl, 5% glycerol, 250 mM imidazole, 1 mM NaF, 0.1 μg/mL OAA, 5 mM BME, 1× Complete protease inhibitor cocktail—EDTA-free. Pertinent fractions were analyzed by SDS-PAGE and pooled accordingly. The protein was further purified by gel filtration on a Superdex 200 26/60 column equilibrated in 20 mM Tris-Cl, pH 7.5, 0.5 M NaCl, 5% glycerol, 1 mM NaF, 5 mM DTT, 1× Complete protease inhibitor cocktail—EDTA-free. Pertinent fractions were analyzed by SDS-PAGE and pooled accordingly. An equal volume of Dialysis Buffer (20 mM Tris-Cl, pH 7.5, 500 mM NaCl, 50% glycerol, 5 mM NaF, 5 mM DTT) was added to the pool and than dialyzed against Dialysis Buffer two changes (one change overnight). Protein was stored at −20° C.

PI3Kβ = target: T3, PI3Kβ (Homo sapiens, UniProt P42338); experiment: PI3K KinaseGlo assay, PI3Kβ; assay type: biochemical; settings: KinaseGlo; 25 nM enzyme, 1 μM ATP, 30 mins, room temperature; read-out: PI3Kb/IC50
T3 construct: p110β(2-1070)-His; made in house; host or cells: baculovirus, Tn5 insect cells
T3 sequence (P42338 with tags, fused parts or gaps): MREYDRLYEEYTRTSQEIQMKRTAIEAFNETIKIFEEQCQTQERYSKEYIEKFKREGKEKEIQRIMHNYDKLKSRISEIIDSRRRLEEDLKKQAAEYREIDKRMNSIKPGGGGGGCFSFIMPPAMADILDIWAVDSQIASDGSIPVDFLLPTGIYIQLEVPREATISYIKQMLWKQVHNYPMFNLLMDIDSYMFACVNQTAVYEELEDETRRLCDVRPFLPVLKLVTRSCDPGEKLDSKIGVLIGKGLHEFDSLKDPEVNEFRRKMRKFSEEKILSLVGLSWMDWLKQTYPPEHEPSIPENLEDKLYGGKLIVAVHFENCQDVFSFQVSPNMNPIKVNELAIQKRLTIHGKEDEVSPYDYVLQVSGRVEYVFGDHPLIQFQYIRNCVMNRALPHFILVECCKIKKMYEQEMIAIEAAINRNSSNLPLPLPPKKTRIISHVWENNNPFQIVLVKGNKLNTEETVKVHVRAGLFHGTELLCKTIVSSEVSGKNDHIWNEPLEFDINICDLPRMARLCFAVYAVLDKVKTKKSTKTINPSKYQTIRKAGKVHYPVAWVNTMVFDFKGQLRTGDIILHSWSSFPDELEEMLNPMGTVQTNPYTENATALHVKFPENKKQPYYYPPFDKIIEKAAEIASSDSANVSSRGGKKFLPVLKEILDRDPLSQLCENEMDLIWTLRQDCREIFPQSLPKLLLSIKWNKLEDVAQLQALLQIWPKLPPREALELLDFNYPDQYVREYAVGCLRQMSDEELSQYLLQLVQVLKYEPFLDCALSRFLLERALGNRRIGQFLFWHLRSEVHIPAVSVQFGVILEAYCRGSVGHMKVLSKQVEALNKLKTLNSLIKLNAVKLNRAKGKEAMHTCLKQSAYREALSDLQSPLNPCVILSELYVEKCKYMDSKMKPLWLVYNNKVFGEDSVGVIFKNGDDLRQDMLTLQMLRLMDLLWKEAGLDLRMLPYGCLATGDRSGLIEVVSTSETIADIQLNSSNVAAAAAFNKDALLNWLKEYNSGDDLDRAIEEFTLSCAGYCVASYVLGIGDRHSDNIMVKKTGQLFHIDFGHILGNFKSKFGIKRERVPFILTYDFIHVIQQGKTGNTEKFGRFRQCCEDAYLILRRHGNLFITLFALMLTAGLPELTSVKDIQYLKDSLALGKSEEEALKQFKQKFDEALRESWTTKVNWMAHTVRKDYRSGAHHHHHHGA
Experimental: as §4, with “PI3K KinaseGlo assay: […] of compound dilutions were dispensed onto black 384-well low volume Non Binding Styrene (NBS) plates (Costar Cat. No. NBS#3676). L-a-phosphatidylinositol” for “L-a-phosphatidylinositol”
5 μL of a mix of PI/OG with the PI3K subtype were added (Table 1). Kinase reactions were started by addition of 5 μl of ATP-mix containing in a final volume 10 μL 10 mM TRIS-HCl pH 7.5, 3 mM MgCl2, 50 mM NaCl, 0.05% CHAPS, 1 mM DTT and 1 μM ATP, and occurred at room temperature. […] The standard was used as a reference compound and included in all assay plates in the form of 16 dilution points in duplicate.
The PI3Kα, PI3Kβ and PI3Kδ constructs are fusion of p85α iSH2 domain and the respective p110 isoforms. The p85α fragment and p110 isoform genes were generated by PCR from first strand cDNA generated by RT-PCR from commercial RNA from placenta, testis and brain as described below. The PI3Kγ construct was obtained from Roger Williams lab, MRC Laboratory of Molecular Biology, Cambridge, UK (November, 2003) and is described (Pacold, Michael E.; Suire, Sabine; Perisic, Olga; Lara-Gonzalez, Samuel; Davis, Colin T.; Walker, Edward H.; Hawkins, Phillip T.; Stephens, Len; Eccleston, John F.; Williams, Roger L. Crystal structure and functional analysis of Ras binding to its effector phosphoinositide 3-kinase gamma. Cell (2000), 103(6), 931-943).
BV949: PCR products for the inter SH2 domain (iSH2) of the p85 PI3Kα, PI13Kβ and PI3Kδ subunit and for the full-length p110β subunit were generated and fused by overlapping PCR. […] The p11013 fragment was obtained by PCR using as template a p110β clone (from unknown source that was sequence verified) using primers gwG130-p04 (5′-[…]-[…]-3′) (SEQ ID NO: 9) which contains linker sequences and the 5′ end of p110β and gwG130-p06 (5′-[…]-[…]-3′) (SEQ ID NO: 10) which contains sequences of the 3′ end of p110-β fused to a Histidine tag. […] This final product was recombined in a Gateway (Invitrogen) […] into the donor vector pDONR201 (Invitrogen) to generate the ORF253 entry clone. This clone was verified by sequencing and used in a Gateway LR reaction (Invitrogen) to transfer the insert into the Gateway adapted pBlueBac4.5 (Invitrogen) vector for generation of the baculovirus expression vector LR280.
as §5
as §6, with “accordingly.” for “accordingly. An equal volume of Dialysis Buffer (20 mM Tris-Cl, pH 7.5, 500 mM NaCl, 50% glycerol, 5 mM NaF, 5 mM DTT) was added to the pool and than dialyzed against Dialysis Buffer two changes (one change overnight). Protein was stored at −20° C.”

PI3Kalpha wild type = target: T4, PI3Kalpha wild type (Homo sapiens, UniProt P42336); experiment: Luciferase luminescence assay (KinaseGlo), PI3Kalpha wild type; assay type: biochemical; settings: construct BV1075; 1 μM ATP, 15 min preincubation, 1 h, room temperature; read-out: PI3Kalpha wild type IC50s
T4 construct: p110α(21-1068)-His; made in house
T4 sequence (P42336 with tags, fused parts or gaps): as the sequence (P42336 with tags, fused parts or gaps) above
From the text: (§7) Luminescence is a well established readout to determine ATP concentrations and can thus be used to follow the activity of many kinases regardless of their substrate. The KinaseGlo Luminescent Kinase Assay (Promega, Madison/WI, USA) is a homogeneous HTS method of measuring kinase activity by quantifying the amount of ATP remaining in solution following a kinase reaction.

PI3Kδ = target: T5, PI3Kδ (Homo sapiens, UniProt O00329); experiment: PI3K KinaseGlo assay, PI3Kδ; assay type: biochemical; settings: 10 nM enzyme, 1 μM ATP, 30 mins, room temperature, read-out: PI3Kd/IC50
T5 construct: p85iSH2(461-568)-GGGGGG-p110δ(2-1044)-His; made in house; host or cells: baculovirus, Tn5 insect cells
T5 sequence (O00329 with tags, fused parts or gaps): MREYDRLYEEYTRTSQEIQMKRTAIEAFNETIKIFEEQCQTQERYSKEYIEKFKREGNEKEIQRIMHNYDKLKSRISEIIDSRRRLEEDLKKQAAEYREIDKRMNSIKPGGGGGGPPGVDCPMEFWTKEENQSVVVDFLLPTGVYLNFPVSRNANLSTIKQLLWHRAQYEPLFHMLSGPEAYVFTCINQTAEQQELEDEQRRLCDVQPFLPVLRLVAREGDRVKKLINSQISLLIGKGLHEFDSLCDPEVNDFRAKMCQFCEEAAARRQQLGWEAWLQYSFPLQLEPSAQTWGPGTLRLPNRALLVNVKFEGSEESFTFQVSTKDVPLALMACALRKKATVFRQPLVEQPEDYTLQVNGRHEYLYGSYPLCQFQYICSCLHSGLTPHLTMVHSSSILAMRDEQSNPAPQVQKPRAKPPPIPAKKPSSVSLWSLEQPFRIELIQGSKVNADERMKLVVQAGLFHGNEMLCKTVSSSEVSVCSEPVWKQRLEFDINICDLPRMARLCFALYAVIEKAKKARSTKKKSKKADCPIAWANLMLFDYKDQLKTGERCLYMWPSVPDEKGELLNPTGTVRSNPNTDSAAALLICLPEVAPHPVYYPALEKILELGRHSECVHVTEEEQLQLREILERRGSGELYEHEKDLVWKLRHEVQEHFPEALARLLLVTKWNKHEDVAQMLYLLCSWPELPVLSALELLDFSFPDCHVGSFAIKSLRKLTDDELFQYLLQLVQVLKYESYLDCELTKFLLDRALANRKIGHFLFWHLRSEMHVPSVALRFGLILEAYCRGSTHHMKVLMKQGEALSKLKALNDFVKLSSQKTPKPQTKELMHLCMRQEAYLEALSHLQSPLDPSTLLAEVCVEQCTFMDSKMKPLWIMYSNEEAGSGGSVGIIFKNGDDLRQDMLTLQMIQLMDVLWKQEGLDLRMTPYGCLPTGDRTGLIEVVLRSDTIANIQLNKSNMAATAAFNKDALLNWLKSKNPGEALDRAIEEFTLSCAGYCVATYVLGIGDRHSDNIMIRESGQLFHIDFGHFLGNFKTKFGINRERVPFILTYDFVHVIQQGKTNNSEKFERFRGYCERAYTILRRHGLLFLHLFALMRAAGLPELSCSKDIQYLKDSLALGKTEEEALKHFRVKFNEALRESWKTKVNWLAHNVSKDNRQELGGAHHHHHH

PI3Kalpha H1047R = target: T6, PI3Kalpha H1047R (Homo sapiens, UniProt P42336, H1047R); experiment: Luciferase luminescence assay (KinaseGlo), PI3Kalpha H1047R; assay type: biochemical; settings: construct BV1097; 1 μM ATP, 15 min preincubation, 1 h, room temperature; read-out: PI3Kalpha H1047R IC50s
T6 construct: made in house; host or cells: baculovirus (vector LR480)
T6 sequence (P42336 with tags, fused parts or gaps H1047R): as the sequence (P42336 with tags, fused parts or gaps) above, with G112I, G113S, G119I, G120M, G121V, H1148R counted along it
From the text: as §7

PI3Kalpha E545K = target: T7, PI3Kalpha E545K (Homo sapiens, UniProt P42336, E545K); experiment: Luciferase luminescence assay (KinaseGlo), PI3Kalpha E545K; assay type: biochemical; settings: construct BV1147; 1 μM ATP, 15 min preincubation, 1 h, room temperature; read-out: PI3Kalpha E545K IC50s
T7 construct: made in house; host or cells: baculovirus (vector LR561)
T7 sequence (P42336 with tags, fused parts or gaps E545K): as the sequence (P42336 with tags, fused parts or gaps) above, with G112I, G113S, G119I, G120M, G121V, E646K counted along it
From the text: as §7

Row | microsomal CLint at 1 μM [1] [µL/min/mg] | microsomal CLint at 1 μM [2] [µL/min/mg] | IC50 (PI3Kα) [nM] | IC50 (PI3Kγ) [nM] | IC50 (PI3Kβ) [nM] | IC50 (PI3Kalpha wild type) [nM] | IC50 (PI3Kδ) [nM] | IC50 (PI3Kalpha H1047R) [nM] | IC50 (PI3Kalpha E545K) [nM] | Compound
1 | 29 | 27 |  |  |  |  |  |  |  | Cc1nc(NC(=O)N2CCC[C@H]2C(N)=O)sc1-c1ccnc(C(C)(CF)CF)c1 [Example 55, (S)-Pyrrolidine-1,2-dicarboxylic acid 2-amide 1-({5-[2-(2-fluoro-1-fluoromethyl-1-methyl-ethyl)-pyridin-4-yl]-4-methyl-thiazol-2-yl}-amide)]
2 |  |  | 44 | 2050 | 3900 | 8.2 | 648 | 7.7 | 6.7 | Cc1nc(NC(=O)N2CCC[C@H]2C(N)=O)sc1-c1ccnc(C2(C)CC2)c1 [Example 5, (S)-Pyrrolidine-1,2-dicarboxylic acid 2-amide 1-({4-methyl-5-[2-(1-methylcyclopropyl)-pyridin-4-yl]-thiazol-2-yl}-amide)]
